What was measured:
D(4) dopamine receptor = target: T1, D(4) dopamine receptor (Homo sapiens, UniProt P21917); test: Binding affinity on human Dopamine receptor D4 expressed in CHO cells using radioligand [3H]-YM 09151; assay type: cell-based
T1 sequence (P21917 whole entry): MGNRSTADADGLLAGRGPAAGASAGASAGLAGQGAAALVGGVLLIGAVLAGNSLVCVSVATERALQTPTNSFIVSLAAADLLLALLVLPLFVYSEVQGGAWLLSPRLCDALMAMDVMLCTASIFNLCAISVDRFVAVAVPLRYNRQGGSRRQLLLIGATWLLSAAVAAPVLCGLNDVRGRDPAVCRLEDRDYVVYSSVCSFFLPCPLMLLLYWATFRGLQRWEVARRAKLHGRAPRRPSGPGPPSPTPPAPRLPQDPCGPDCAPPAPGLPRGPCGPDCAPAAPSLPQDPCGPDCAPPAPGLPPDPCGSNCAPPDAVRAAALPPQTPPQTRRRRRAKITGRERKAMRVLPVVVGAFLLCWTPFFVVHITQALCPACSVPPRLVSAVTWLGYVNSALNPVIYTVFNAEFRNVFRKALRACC

D(3) dopamine receptor = D(3) dopamine receptor (Homo sapiens, UniProt P35462); test: Binding affinity on human Dopamine receptor D3 expressed in CHO cells using radioligand [3H]-YM 09151; assay type: cell-based
Sequence of D(3) dopamine receptor (P35462 whole entry): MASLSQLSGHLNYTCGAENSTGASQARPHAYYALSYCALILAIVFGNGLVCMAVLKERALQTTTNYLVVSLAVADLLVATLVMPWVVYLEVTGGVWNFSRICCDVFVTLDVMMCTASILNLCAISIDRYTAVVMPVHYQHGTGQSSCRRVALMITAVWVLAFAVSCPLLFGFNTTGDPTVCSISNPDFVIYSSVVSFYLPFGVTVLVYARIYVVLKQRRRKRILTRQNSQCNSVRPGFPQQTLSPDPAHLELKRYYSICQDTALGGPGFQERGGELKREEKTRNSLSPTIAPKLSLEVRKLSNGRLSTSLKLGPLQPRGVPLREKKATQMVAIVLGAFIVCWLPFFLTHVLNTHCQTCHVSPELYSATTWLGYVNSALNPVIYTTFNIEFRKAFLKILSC

[1] = target: T2, 5-hydroxytryptamine receptor 1A (Homo sapiens, UniProt P08908); test: Binding affinity against 5-hydroxytryptamine 1A receptor
T2 sequence (P08908 whole entry): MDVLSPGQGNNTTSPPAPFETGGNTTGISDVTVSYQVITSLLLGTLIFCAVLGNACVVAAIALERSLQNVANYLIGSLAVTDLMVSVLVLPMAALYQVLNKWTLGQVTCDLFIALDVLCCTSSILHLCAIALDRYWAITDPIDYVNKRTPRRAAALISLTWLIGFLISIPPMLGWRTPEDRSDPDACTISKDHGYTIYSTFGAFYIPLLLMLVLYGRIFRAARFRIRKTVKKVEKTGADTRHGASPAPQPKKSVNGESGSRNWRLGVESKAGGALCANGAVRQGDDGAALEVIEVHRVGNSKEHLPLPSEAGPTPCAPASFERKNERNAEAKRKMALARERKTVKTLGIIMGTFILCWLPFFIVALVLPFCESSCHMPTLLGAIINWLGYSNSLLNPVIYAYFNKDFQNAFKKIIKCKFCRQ

Compound: c1ccc(-c2nc(CN3CCN(c4cccnc4)CC3)c[nH]2)cc1
- Ki (D(4) dopamine receptor): 73 nM

Compound: c1ccc(-c2nc(CN3CCN(c4ccccc4)CC3)c[nH]2)cc1
- Ki (D(3) dopamine receptor): 193 nM
- Ki (D(4) dopamine receptor): 5.2 nM

Compound: c1ccc(-c2nc(CN3CCN(c4cnccn4)CC3)c[nH]2)cc1
- Ki (D(3) dopamine receptor): > 6660 nM
- Ki (D(4) dopamine receptor): 50 nM

Compound: c1ccc(-c2ncc(CN3CCN(c4ncccn4)CC3)[nH]2)cc1
- Ki [1]: 181 nM
- Ki (D(3) dopamine receptor): > 8000 nM
- Ki (D(4) dopamine receptor): 3.8 nM

Compound: c1ccc(-c2ncc(CN3CCN(c4ccncc4)CC3)[nH]2)cc1
- Ki (D(3) dopamine receptor): > 8000 nM
- Ki (D(4) dopamine receptor): > 7300 nM

Compound: Cc1nc(-c2ccccc2)[nH]c1CN1CCN(c2ncccn2)CC1
- Ki (D(3) dopamine receptor): 2980 nM
- Ki (D(4) dopamine receptor): 6 nM

Compound: c1ccc(-c2ncc(CN3CCN(c4ccccn4)CC3)[nH]2)cc1
- Ki (D(3) dopamine receptor): 1530 nM
- Ki (D(4) dopamine receptor): 8.5 nM

Compound: c1ccc(-c2nc(CN3CCN(c4ccncn4)CC3)c[nH]2)cc1
- Ki (D(3) dopamine receptor): > 8000 nM
- Ki (D(4) dopamine receptor): 1400 nM

Reference: ChEMBL document CHEMBL1130009 (J Med Chem, 1997)
